Earlier results in PubChem BioAssay AID1259409 (Chemical Carcinogenesis Research Information System (CCRIS), 2018).

Test system: rodent chemically induced tumor inhibition, incidence and multiplicity
Assay: CCRIS tumor inhibitor studies
Conditions: Dose [Inhibitor]: 0

Compound	tumour outcome (control, treated, inhibition, significance) (Carcinogen: 7,12-DIMETHYLBENZ[A]ANTHRACENE, 57-97-6, 0.2 ML OF A 1% SOLUTION 1/D FOR 2 WK APPLIED 5 MIN POST EACH CARCINOGEN DOSE THEN 1/D FOR 4 WK DURING PROMOTION STAGE, Route [Inhibitor]: DERMAL, Species: MOUSE, Strain/Sex: SWISS/MALE, Target Tissue: Type of Lesion: SKIN: PAPILLOMA, Dose [Carcinogen]: 0.2 ML OF A 0.24% SOLUTION IN DMSO 1/D FOR 2 WK, Promoter: CROTON OIL, 8001-28-3)	tumour outcome (control, treated, inhibition, significance) (Carcinogen: 7,12-DIMETHYLBENZ[A]ANTHRACENE, 57-97-6, 0.2 ML OF A 1% SOLUTION 1/D FOR 2 WK APPLIED 5 MIN PRIOR TO EACH CARCINOGEN DOSE (STUDY DURATION: 20 WK), Route [Inhibitor]: DERMAL, Species: MOUSE, Strain/Sex: SWISS/MALE, Target Tissue: Type of Lesion: SKIN: PAPILLOMA, Dose [Carcinogen]: 0.2 ML OF A 0.24% SOLUTION IN DMSO 1/D FOR 2 WK, Promoter: CROTON OIL, 8001-28-3)	tumour outcome (control, treated, inhibition, significance) (Carcinogen: AZOXYMETHANE, 25843-45-2, 4 UG/KG BW IN OLIVE OIL 1/2 D FOR DURATION OF STUDY (STUDY DURATION: 45 WK), Route [Inhibitor]: SUBCUTANEOUS, Species: RAT, Strain/Sex: WISTAR/MALE, Target Tissue: Type of Lesion: COLON: ADENOMA OR ADENOCARCINOMA, Dose [Carcinogen]: 7.4 MG/KG BW IN 0.9% SALINE 1/WK FOR 10 WK, Promoter: NONE USED)	tumour outcome (control, treated, inhibition, significance) (Carcinogen: N-METHYL-N'-NITRO-N-NITROSOGUANIDINE, 70-25-7, 2 UG/KG BW IN OLIVE OIL 1/2 WK FOR 26 WK BEGINNING POST CARCINOGEN TREATMENT (STUDY DURATION: 52 WK), Route [Inhibitor]: SUBCUTANEOUS, Species: RAT, Strain/Sex: WISTAR/MALE, Target Tissue: Type of Lesion: STOMACH: ADENOCARCINOMA, Dose [Carcinogen]: 50 UG/ML IN DRINKING WATER FOR 25 WK, Promoter: NONE USED)	tumour outcome (control, treated, inhibition, significance) (Carcinogen: N-METHYL-N'-NITRO-N-NITROSOGUANIDINE, 70-25-7, 4 UG/KG BW IN OLIVE OIL 1/2 WK FOR 26 WK BEGINNING POST CARCINOGEN TREATMENT (STUDY DURATION: 52 WK), Route [Inhibitor]: SUBCUTANEOUS, Species: RAT, Strain/Sex: WISTAR/MALE, Target Tissue: Type of Lesion: STOMACH: ADENOCARCINOMA, Dose [Carcinogen]: 50 UG/ML IN DRINKING WATER FOR 25 WK, Promoter: NONE USED)
O=c1cc(-c2ccc(O)c(O)c2)oc2cc(O)cc(O)c12	23/23 (100%), 10/24 (42%), 58%, not calculated	23/23 (100%), 20/23 (87%), 13%, not calculated			
CCC(C)C(NC(=O)C(C)NC(=O)C(Cc1cnc[nH]1)NC(=O)C1CCCN1C(=O)CNC(=O)C(CC(C)C)NC(=O)C(CC(C)C)NC(=O)C(Cc1ccc(O)cc1)NC(=O)CNC(=O)C(C)NC(=O)C(CO)NC(=O)C(CC(N)=O)NC(=O)C(CC(C)C)NC(=O)C(NC(=O)C(Cc1c[nH]c2ccccc12)NC(=O)CN)C(C)O)C(=O)NC(CC(=O)O)C(=O)NC(CC(N)=O)C(=O)NC(Cc1c[nH]cn1)C(=O)NC(CCCNC(=N)N)C(=O)NC(CO)C(=O)NC(Cc1ccccc1)C(=O)NC(Cc1cnc[nH]1)C(=O)NC(CC(=O)O)C(=O)NC(CCCCN)C(=O)NC(Cc1ccc(O)cc1)C(=O)NCC(=O)NC(CC(C)C)C(=O)NC(C)C(N)=O (stereo not given)			15/19 (79%), 7/19 (37%), 53%, p<0.05	10/20 (50%), 10/20 (50%), 0%, not significant	10/20 (50%), 3/20 (15%), 70%, p<0.01
